From paper PMC9096233, “Identification of an Au(I) N-Heterocyclic Carbene Compound as a Bactericidal Agent Against Pseudomonas aeruginosa” (Frontiers in Chemistry, 2022) come the findings set out here.

One data set concerns LasB elastase. The experiment in a line: LasB elastase, Elastin-Congo red assay. The class given is cell-based, Pseudomonas aeruginosa. Conditions: 15 μM; 24 h. The method, then:
(§1) To quantify the secreted virulence factors, overnight P. aeruginosa PAO1 was diluted in fresh M9 medium and cultured to a final OD600 value of 0.15. Then Au1 or auranofin were added into culture with indicated concentrations. After 24 h incubation at 37°C, the bacterial supernatants were collected by centrifugation at 4,000 g for 10 min at 4°C and filtered using a 0.22 μm syringe filter (Millipore). The secreted virulence factors in the supernatant were quantified by the methods described below.
The LasB elastase was examined by Elastin-Congo red assay ([Morihara et al., 1965]). In brief, 700 μL of bacterial supernatant was incubated with 700 μL of 10 mg/ml Elastin-Congo (Sigma-Aldrich) red elastase substrate in reaction buffer (100 mM Tris-HCl, 1 mM CaCl2, pH 7.5) at 37°C for 3 h with shaking. Then 0.2 ml EDTA was added to a final concentration of 10 mM to stop the cleavage reaction. Insoluble pellets were removed by centrifugation and the absorbance of the supernatant at 495 nm was measured.

Another data set relates to P. aeruginosa PAO1. The experiment in a line: Mouse skin wound infection model. The class given is in vivo. As to the method: Six-week-old female BALB/c mice were used for animal experiments to evaluate the healing effect of infected wounds in vivo. Briefly, mouse backs were cut to generate a circular wound (diameter 0.6 cm) with a hole punch and the wound was infiltrated using a medical cotton swab with P. aureginosa (overnight culture, OD600 = 0.3). The mice were randomly divided into three groups, including PBS, auranofin, and Au-1 groups (n = 5 in each group). The drugs were dissolved in DMSO and diluted with glycerol to a final concentration of 50 μM. After the bacterial fluid was dry, about 20 μL of the drug was added to the wound. Body weights and wound photography was recorded on days 0, 1, 3, 5, and 8. And on the 8th day, the mice were euthanized by chloral hydrate, the infectious tissues in all groups were collected and cultured into the LB plate for colony counting. The skin tissues were also fixed by paraformaldehyde solution (4%) for H&E, Gram, and Masson’s trichrome staining.
The above results promoted us to further investigate whether the Au1 compound was also efficacious in an in vivo animal infection model. To this end, we used a mouse wound infection model to assess the anti-P. aeruginosa efficacy of Au1 as described previously ([Liao et al., 2017b]). In brief, a circular wound with a diameter of 6 mm was created on the flank of mice, and approximately 5 × 10^8 CFU of P. aeruginosa PAO1 were dipped onto the wound by medical cotton swab to induce infection. Treatment is administered on the 1st day with auranofin or Au1 compound (50 μM, 20 μL) was applied to the wounds. The wound sizes and mice weights were recorded each day. On the 8th day, the infection sites were excised and part of the tissues was fixed in 4% paraformaldehyde and embedded in paraffin. Four-micrometer sections were cut, stained with Gram, H&E, and Masson’s trichrome stain. The remained tissues were homogenized and serially diluted for CFU quantification (Figure 6A).

For the next data set, the system named is P. aeruginosa biofilm. The experiment in a line: Biofilm inhibition, crystal violet. The class given is cell-based, Pseudomonas aeruginosa. The note with it: 48 h static incubation. As to the method: P. aeruginosa was cultured in 24-well microtiter plate (Corning, NY, United States) for static biofilm formation. For biofilm inhibition assay, approximately 1 ml of bacterial overnight culture were diluted in fresh M9 medium with a final OD600 value of 0.33 and transferred into each well of microtiter plate in the absence or presence of sub-lethal concentration of Au1 or auranofin (2.5, 10, and 15 μM). After static incubation at 37°C for 48 h, weakly adherent planktonic cells were removed from the microtiter plate by washing with phosphate buffered saline (PBS) for three times gently. The adherent biofilms were dried and stained with 0.1% (w/v) crystal violet for 15 min. Excess dye was removed by rinsing the plate three times with PBS. Crystal violet was solubilized from the stained biofilms by adding 30% acetic acid and the biofilms were quantified by measuring the 595 nm absorbance. Each experiment was performed in triplicates.

For a further data set, the system named is pyoverdine. Nature of the data set: Quantification of secreted pyoverdine. Type of data set: cell-based, Pseudomonas aeruginosa. The note with it: 15 μM; 24 h. The method, then:
as §1

The test system of another data set is rhamnolipid. Nature of the data set: Rhamnolipid measurement (anthrone). Type of data set: cell-based, Pseudomonas aeruginosa. The note with it: 15 μM. The method, then:
as §1
For rhamnolipid measurement, rhamnolipid was extracted from the supernatant with a mixture of chloroform and methanol (v:v = 2:1). The organic solvent phase was then evaporated to dryness and 100 μL methanol was added to dissolve the extracted rhamnolipid. Then 200 μL of pre-cooled anthrone solution (dissolving 2 g of anthrone in 1 L of concentrated H2SO4) was added into 20 μL extracted rhamnolipid sample and heat at 80°C for 30min. The rhamnolipid concentration was determined by measurement the absorbance at 630 nm.

The next data set concerns lung carcinoma A549 cell. The experiment in a line: MTT cytotoxicity assay. Type of data set: cell-based, Human. The note with it: 48 h. The method, then:
The cytotoxicity of gold compounds to mammalian cells was measured using the 3-(4, 5-dimethylthiazol-2-yl)-2, 5-diphenyltetrazolium bromide (MTT) assay. Human hepatocyte L-O2 cell, and lung carcinoma A549 cell were cultured in Corning 96 well microplates (10^4 cells per well) at 37°C for 18 h. Then the cells were incubated with gradient concentrations of gold compounds at 37°C for another 48 h. After the treatment, cell culture media were removed and the plates were wash with PBS for three times. And 90 μL fresh media and 10 μL 5 mg/ml MTT solution were added to each well and further incubated at 37°C for 4 h. Subsequently, the media were removed from the wells and 150 μL DMSO was added into each well to dissolve the formazan crystals. The absorbance at 490 nm of each well was measured with a micro-plate reader. The experiments were carried out in triplicates.

The subject of the next data set is P. aeruginosa. The experiment in a line: Checkerboard assay with antibiotics. The class given is cell-based, Pseudomonas aeruginosa. The note with it: with tobramycin and colistin. An excerpt:
Figure S4. Heat plots of checkerboard assays for gold(I) compounds in combination with different antibiotics against P. aeruginosa.

As for NHC^Me-Au-Cl [Au1], in the data set with LasB elastase, the “decrease of elastase secretion” value is on record as 38%. Also, in the data set on P. aeruginosa PAO1 (50 μM, 20 μL on wound, 8th day), the “state of infected wound” value is “almost completely recovered”. Also, in the data set with P. aeruginosa PAO1 (50 μM, 20 μL on wound, 8 days), the “toxicity to the mice (mice weights)” value is listed as “no significant toxicity”. Further, the wound healing rate entry with P. aeruginosa PAO1 (50 μM, 20 μL on wound, vs auranofin-treated or control group) is “much faster”. Besides, the “bacteria in wound tissue (Gram staining)” value in the data set with P. aeruginosa PAO1 (8th day) is “no bacteria was observed”. For the same substance, the “reduction of live bacteria in the infection sites” value in the data set on P. aeruginosa PAO1 (8th day, CFU, compared to control group) was found to be 90%. Also, in the data set with P. aeruginosa biofilm, the “lowest concentration sufficient to inhibit biofilm formation” value turned out to be 2.5 µM. The “decrease of pyoverdine siderophore secretion” value in the data set with pyoverdine is on record as 50%. Besides, in the data set on rhamnolipid, the synthesis of rhamnolipid entry is on record as “significantly suppress”. For the same substance, in the data set on lung carcinoma A549 cell, the 50% inhibitory concentration (IC50) (usually the concentration at which inhibition is half-maximal) was determined as 32.8 ± 1.6 µM. In the data set on P. aeruginosa, the “synergistic effects with antibiotics” value is on record as “synergistic effects”.
